Experimental data as given in US20260242606A1, “PROCESS OF PREPARATION OF RESIDUE FREE SOLVENT BLUE 67 DYE” (RATHI DYE CHEM (P) LTD, priority 2023, published 2026).

Assay: Estimation of residue content in Solvent Blue 67 dye by filtration of the dye solution in organic solvent
Type: physicochemical
Method: For the preparation of Solvent Blue 67, chlorosulfonation is carried out in a vessel by reacting chlorosulfonic acid with 300 g of crude copper phthalocyanine blue (CPC) in presence of acid chloride followed by the process of drowning, filtration, homogenization, condensation, clarification, filtration, spin flash drying, airclassifying and sieving to retrieve the final product. The final product obtained is 560 g to 600 g of Solvent Blue 67 with purity 100%+5% coloristic value. Further, the estimation of residue content is determined by filtration process of prepared Solvent Blue 67 dye using organic solvent and the weight of residue is calculated.
An adequate quantity of Solvent Blue 67 of about 20 g to 60 g is dissolved in 50 ml to 150 ml of alkyl ester (or alkyl ketonic organic solvent) based on end process in a glass beaker. […]
The resultant dye solution is filtered through a filtration assembly. […] The residue left in the beaker is quantitatively transferred to the filter using 20 ml to 30 ml of alkyl ester (or alkyl ketonic organic solvent) and the filtrate is further washed with 15 to 25 ml of the same solvent to make it colour free. […] The weight of residue is calculated as weights of before and after filtration and expressed in PPM. […]

Solvent Blue 67
residue content (Example 1, after clarification 225 (circulated in filter of 10 to 100 mesh up to 24 hrs), cake dried): below 40 PPM
presence of residue (FIGS. 2a and 2b) (dye dissolved in alkyl ester or alkyl ketonic organic solvent, filtered through 20 to 50 micron stainless-steel mesh): does not show presence of any amount of residue
